Data taken from patent US9884833B2, “Crystalline forms of neurotrophin mimetic compounds and their salts” (Pharmatrophix, Inc., priority 2012, dated 2018).

How the values were obtained:
Type in all cases: physicochemical
[1] = Static vapor sorption studies in humidity chambers; conditions: for weight gain by TGA: after 40 days
Text: Static vapor sorption studies were done in hermetic humidity chambers using saturated salts, or environmental humidity chambers to control the temperature and humidity. Data collected during dynamic vapor sorption studies often are not at theiniodynamic equilibrium. To gain a better understanding of the water uptake and the critical humidity level of the API, samples of the starting material (Form A) were monitored in static humidity chambers to allow the sample to equilibrate with aerial moisture.
In these studies, water vapor sorption was determined gravimetrically (or by Thermogravimetric analysis) by storing samples in open aluminum dishes. Samples were stored at 8 different humidities (23, 33, 43, 53, 60, 69, 75 and 84% RH) at ambient temperature. A few hundred milligrams of Form A was staged at each humidity condition.
The samples were examined periodically either by recording the weight change or by monitoring the water content by Karl Fischer or TGA, and/or XRD pattern. […] The samples stored at humidities higher than 60% RH deliquesced after 10 days.

[2] = Visual solubility measurement in various solvents
Description: About 100 mg of disulfate starting material was placed into each of 26 vials. Solvents were added and the vials were stirred for 30 minutes, followed by visual observation for remaining solids. Additional solvent was incrementally added until the solids were dissolved, or a maximum volume of solvent was added and the experiment was terminated. This solubility data was used in designing experiments, selecting the solvents, anti-solvents for crystallization and slurry experiments, sample consumption, etc.

[3] = Non-competitive slurry experiments (solid form stability)
Text: In addition to the solvent recrystallization experiments, non-competitive slurry experiments were perfoi ined to search for new solid state forms. These experiments rely on solubility differences of different polymorphic forms (if the compound is polymorphic). […] Essentially, when a solid is mixed with solvent as slurry, a saturated solution eventually results. The solution is saturated with respect to the polymorphic form dissolved.
In addition, noncompetitive slurry experiments are often useful in identifying solvents that form solvates with the compound.
The slurry experiments were performed by exposing excess “starting” material (Form A) to neat (single) and binary solvent mixtures and agitating the resulting suspensions for several days at ambient temperature. The solids were vacuum filtered and analyzed by XRD to determine the resulting form. To avoid possible desolvation or physical change after isolation, the samples were not further dried before X-ray analysis.

[4] = Hygroscopicity by dynamic vapor sorption (DVS); conditions: for water uptake: 0-55% RH; for water uptake (sorption maximum): 95% RH
Description: Samples were analyzed using an automated dynamic vapor sorption analyzer. The sample (about 1-10 mg) was dried in the instrument 0% RH for 6 hours. The samples were subjected to 0 to 95% RH back to 5% RH at 25° C. in 5% RH steps.
The water content of the as received material was determined by Karl Fischer to be approximately 0.3 wt %. The moisture sorption-desorption isotherms (FIGS. 3A and 3B) were collected using dynamic vapor sorption (DVS) analysis. […] A hydrate may also form near 60% RH.
FIGS. 3A and 3B show the moisture sorption-desorption isotherm and the kinetic plots for Form A. This sample may undergo hydrate formation ≧60% RH, although the shape of the isotherm is less than ideal.
To understand this further a fresh sample of starting material was staged at 60% RH in DVS for about 3 hours allowing sample to gain about 4 wt %. […] FIG. 21.

[5] = stored at 60% RH, then dried at ~45° C. under vacuum for about 15 days
[6] = DVS sorption, 25° C., listed as 2-amino-3-methyl-N-(2-morpholinoethyl)-pentanamide disulfate

2-amino-3-methyl-N-(2-morpholinoethyl)-pentanamide disulfate [Form A]
weight gain by TGA ([1]; stored at 43% RH): approximately 1.0 wt % | weight gain by TGA ([1]; stored at 53% RH): ~1.3 wt % | state after storage ([1]; stored at 60% RH, after 27 days): mostly deliquesced | weight gain ([1]; stored at 60% RH, in 20 days): approximately 6 wt % | XRD after storage and drying [1, 5]: identical to starting material | weight by TGA after drying [1, 5]: approximately 3.3 wt % | state after storage ([1]; stored at humidities higher than 60% RH, ambient temperature, after 10 days): deliquesced | weight gain ([1]; stored at humidities lower than 43% RH, ambient temperature, after 15 days): minimaUno weight gain | Approx. Solubility ([2]; 1-butanol): ≦1.67 mg/mL | Approx. Solubility ([2]; 1-propanol): ≦1.67 mg/mL | Approx. Solubility ([2]; 2-butanol): ≦1.67 mg/mL | Approx. Solubility ([2]; 2-propanol): ≦1.67 mg/mL | Approx. Solubility ([2]; acetone): ≦1.67 mg/mL | Approx. Solubility ([2]; acetonitrile): ≦1.67 mg/mL | Approx. Solubility ([2]; butylamine): ≦1.67 mg/mL | Approx. Solubility ([2]; chloroform): ≦1.67 mg/mL | Approx. Solubility ([2]; dichloromethane): ≦1.67 mg/mL | Approx. Solubility ([2]; diisopropylamine): ≦1.67 mg/mL | Approx. Solubility ([2]; dimethylacetamide (DMA)): ≦1.67 mg/mL | Approx. Solubility ([2]; dimethylformamide (DMF)): ~1.67 mg/mL | Approx. Solubility ([2]; ethanol): ≧50 mg/mL | Approx. Solubility ([2]; ethyl acetate (EtOAc)): ≦1.67 mg/mL | Approx. Solubility ([2]; heptane): ≦1.67 mg/mL | Approx. Solubility ([2]; isopropyl acetate): ≦1.67 mg/mL | Approx. Solubility ([2]; isopropyl ether): ≦1.67 mg/mL | Approx. Solubility ([2]; methanol, stirred 30 minutes): ≧100 mg/mL | Approx. Solubility ([2]; methyl ethyl ketone (MEK)): ≦1.67 mg/mL | Approx. Solubility ([2]; methyl-t-butyl ether (MTBE)): ≦1.67 mg/mL | Approx. Solubility ([2]; nitromethane): ≦1.67 mg/mL | Approx. Solubility ([2]; pyridine): ≦1.67 mg/mL | Approx. Solubility ([2]; tetrahydrofuran (THF)): ≦1.67 mg/mL | Approx. Solubility ([2]; toluene): ≦1.67 mg/mL | Approx. Solubility ([2]; trifluoroethanol): ≧50 mg/mL | Approx. Solubility ([2]; water): ≧100 mg/mL | Final Form ([3]; slurry in DMA, 27 days, ambient temperature, by XRD): monosulfate | Final Form ([3]; slurry in DMF/2-propanol (1/1), 19 days): monosulfate | Final Form ([3]; slurry in DMF/2-propanol (1/2), 19 days): monosulfate | Final Form ([3]; slurry in DMF/2-propanol (2/1), 19 days): monosulfate | Final Form ([3]; slurry in DMF/acetone (1/1), 19 days): monosulfate | Final Form ([3]; slurry in DMF/acetone (1/2), 19 days): monosulfate | Final Form ([3]; slurry in DMF/acetone (2/1), 19 days): monosulfate | Final Form ([3]; slurry in DMF/heptane (1/1), 19 days): monosulfate | Final Form ([3]; slurry in DMF/heptane (1/2), 19 days): monosulfate | Final Form ([3]; slurry in DMF/heptane (2/1), 19 days): monosulfate | Final Form ([3]; slurry in water, duration n/a): all dissolved | water remaining in desorption phase ([4]; DVS desorption, 65% RH, 25° C.): ~23 wt % | mass above original value at end of desorption cycle ([4]; DVS desorption): ~4 wt % | mass above original value at end of desorption cycle ([4]; DVS desorption, listed as 2-amino-3-methyl-N-(2-morpholinoethyl)-pentanamide disulfate): about 4 wt % | water uptake ([4]; DVS sorption, 25° C.): 2 wt % | water uptake [4, 6]: did not sorb much water | water uptake (total) ([4]; DVS sorption, 65% RH, 25° C.): ~23 wt % | water uptake (sorption maximum) ([4]; DVS sorption, 25° C.): approximately 225 wt % | water uptake (sorption maximum) [4, 6]: up to 225 wt % | behaviour at high humidity ([4]; DVS, high humidity, followed by glass formation upon evaporation): Apparent deliquescence | weight gain ([4]; fresh sample staged at 60% RH in DVS for about 3 hours): about 4 wt % | relative humidity at which hydrate forms ([4]; from DVS isotherm, 25° C.): ~60 % RH
